Among the test systems are ACHN renal; KM12 colon; MALME-3M melanoma; SF-539 CNS; SK-MEL-2 melanoma; SR leukemia; UO-31 renal; PC-3 prostate.
What all share (assay): growth of human tumour cells (NCI), 48 h

SMILES strings stand for the structures.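 Grown in 96-well plates, cells were treated for 48 hours with each compound at five concentrations. Insufficient inhibition: endpoint recorded as highest concentration tested. The concentration for 50% growth inhibition is given as GI50. The concentration for full growth arrest is given as TGI.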 Where only a bound is given, the exact number is not on record here.

As to `N/C(=C\c1ccc(OCc2ccccc2)c(OCc2ccccc2)c1[N+](=O)[O-])C(=O)O`, the TGI in the test with ACHN renal, with KM12 colon, in the test with MALME-3M melanoma, in the test on SF-539 CNS, in the test on SK-MEL-2 melanoma and in the test on SR leukemia was greater than 100 µM throughout. In the test on UO-31 renal, the TGI was greater than 100 µM.
For the molecule `Cc1ccccc1C(=O)c1ccccc1O`, the TGI in the test with ACHN renal, with KM12 colon, with MALME-3M melanoma, with SF-539 CNS, in the test on SK-MEL-2 melanoma and in the test on UO-31 renal was greater than 100 µM in each case.
Regarding `CCC1(c2c(F)c(F)c(N)c(F)c2F)CCC(=O)NC1=O` (stereo not drawn), the TGI in the test with ACHN renal, in the test with KM12 colon, in the test with MALME-3M melanoma, in the test on SF-539 CNS, in the test on SK-MEL-2 melanoma and in the test with SR leukemia was greater than 100 µM throughout. Further, in the test with UO-31 renal, the TGI was greater than 100 µM.
`C[S+](C)CCOC(=O)C(=[N+]=[N-])c1ccc([N+](=O)[O-])cc1`: the TGI in the test with ACHN renal, in the test with KM12 colon, with MALME-3M melanoma, in the test on SF-539 CNS, in the test with SK-MEL-2 melanoma and in the test with UO-31 renal was greater than 100 µM in each case.
For the molecule `CC1(CO)OC(n2cc(C(=O)NC(=O)OCc3ccccc3)c(=O)[nH]c2=O)CC1O` (stereo not drawn), the TGI in the test on ACHN renal, with KM12 colon, with MALME-3M melanoma, with SF-539 CNS, with SR leukemia and with UO-31 renal was greater than 100 µM throughout.
On to `N#Cc1c(NN)nc(NN)c(C#N)c1-c1ccccc1`, for which the TGI with ACHN renal, in the test on KM12 colon, in the test on MALME-3M melanoma, in the test with SF-539 CNS, in the test on SK-MEL-2 melanoma and in the test with UO-31 renal was greater than 100 µM each time.
On to `CCc1c(C#N)c(S[C@@H](C(N)=O)c2ccccc2)nc(N(C)C)c1C#N`, for which the GI50 was 3.9 µM in the test on ACHN renal; greater than 100 µM in the test with KM12 colon; 4.65 µM with SF-539 CNS; greater than 100 µM with SK-MEL-2 melanoma; 2.95 µM with UO-31 renal. For the same molecule, the TGI in the test with ACHN renal, in the test with KM12 colon, in the test on SF-539 CNS, in the test on SK-MEL-2 melanoma and in the test with UO-31 renal was greater than 100 µM throughout.
For the molecule `CCCCCCCCCCCCCC(=O)CC(=O)c1c(O)cccc1O`, the TGI is 74.5 µM in the test with ACHN renal; greater than 100 µM in the test with KM12 colon; 92 µM in the test with MALME-3M melanoma; greater than 100 µM in the test on SF-539 CNS; 41.4 µM with SK-MEL-2 melanoma; greater than 100 µM in the test with UO-31 renal.
With `Cn1c(=O)nc2n(-c3cccc(Br)c3)c3ccccc3nc-2c1=O`, the TGI with ACHN renal was found to be 13.7 µM; with KM12 colon, 21 µM; with MALME-3M melanoma, 6.46 µM; in the test with SF-539 CNS, 18.2 µM; in the test on SK-MEL-2 melanoma, 18.2 µM; in the test with UO-31 renal, 26.3 µM.
With `CC1(c2cccc3ccccc23)OC(=O)c2ccccc21` (stereo not drawn), the TGI is 70.9 µM in the test on ACHN renal; greater than 100 µM in the test with KM12 colon; 53.4 µM in the test on MALME-3M melanoma; 30.2 µM in the test with SF-539 CNS; 62.6 µM with SK-MEL-2 melanoma; 78.7 µM with UO-31 renal.
As for `COC(=O)C(=O)OC1(C(C)=O)CC2(c3ccccc3)OC1(c1ccccc1)c1ccccc12` (stereo not drawn), the TGI is 35.2 µM in the test on MALME-3M melanoma, 26.7 µM in the test with SF-539 CNS, greater than 100 µM in the test on SR leukemia and 29.9 µM in the test on UO-31 renal.
Turning to `Oc1ccccc1C=NCc1ccco1`, the TGI with ACHN renal, in the test with KM12 colon, with MALME-3M melanoma, with SF-539 CNS, in the test with SR leukemia and in the test with UO-31 renal was greater than 100 µM in each case.
Regarding `O=c1nc2n(-c3ccc(Cl)cc3)c3ccc([N+](=O)[O-])cc3cc-2c(=O)[nH]1`, the GI50 was 57.4 µM in the test on ACHN renal; 5.06 µM in the test on KM12 colon; 23.5 µM with PC-3 prostate; 22.5 µM with SF-539 CNS; 55.1 µM in the test with SK-MEL-2 melanoma; 20 µM with UO-31 renal. For the same molecule, the TGI in the test on ACHN renal was greater than 100 µM; in the test on KM12 colon, 20 µM; with PC-3 prostate it was 78.5 µM; with SF-539 CNS it was 53.9 µM; with SK-MEL-2 melanoma it was greater than 100 µM; in the test on UO-31 renal it was 53.6 µM.
Turning to `O=C(CC1(O)C(=O)Nc2c(Cl)ccc(Cl)c21)c1ccc2ccccc2c1` (stereo not drawn), the TGI with ACHN renal was 26.3 µM; with KM12 colon, 17.8 µM; in the test with MALME-3M melanoma, 25.1 µM; in the test with SF-539 CNS it was 35.5 µM; in the test on SK-MEL-2 melanoma, 26.3 µM; in the test on SR leukemia, 7.62 µM. Besides, the TGI in the test with UO-31 renal is 34.9 µM.
With `CCOc1ccccc1NC(=O)CC1SC(=Nc2ccc([N+](=O)[O-])cc2)NC1=O` (stereo not drawn), the TGI stood at 46 µM in the test with ACHN renal; 37 µM with KM12 colon; 51.1 µM with MALME-3M melanoma; 41.5 µM in the test with SK-MEL-2 melanoma; 37.7 µM with UO-31 renal.
As for `O=C1NC(=O)C2C(=O)NC(=O)C1C2(c1ccccc1)c1cc[nH]c1` (stereo not drawn), the TGI in the test on ACHN renal, in the test with KM12 colon, in the test with MALME-3M melanoma, with SF-539 CNS, in the test on SK-MEL-2 melanoma and with UO-31 renal was greater than 100 µM in each case.
For the molecule `BrC1=CC=C2NC=CC3=CC=NC1C32` (stereo not drawn), the TGI with ACHN renal was greater than 93.8 µM; with KM12 colon, greater than 100 µM; in the test with MALME-3M melanoma, 67.1 µM; in the test on SF-539 CNS, greater than 100 µM; in the test on SK-MEL-2 melanoma, 56.9 µM; in the test with SR leukemia, 26 µM. Also, the TGI in the test on UO-31 renal turned out to be 51.3 µM.
As to `CC(=O)[CH-]C(=O)c1ccccc1.CC(=O)[CH-]C(=O)c1ccccc1.CC1(C)C2CCC1(C)C([O-])C2.CC1(C)C2CCC1(C)C([O-])C2.[Ti+4]`, the GI50 in the test with ACHN renal is 54.4 µM; with KM12 colon, 34.8 µM; in the test on MALME-3M melanoma, 12.4 µM; with SF-539 CNS, 17.8 µM; in the test on SK-MEL-2 melanoma, 14.2 µM; in the test on UO-31 renal, 27.8 µM. Also, the TGI was greater than 100 µM with ACHN renal; greater than 100 µM in the test with KM12 colon; 30.2 µM with MALME-3M melanoma; 45.9 µM in the test on SF-539 CNS; 29.6 µM in the test with SK-MEL-2 melanoma; 93.8 µM in the test on UO-31 renal.
With `Clc1cc(Cc2cc(Cl)c(Cl)c3c2OCOC3)c2c(c1Cl)COCO2`, the TGI with ACHN renal is greater than 100 µM; in the test on KM12 colon, greater than 100 µM; with MALME-3M melanoma, greater than 100 µM; with SF-539 CNS it was 52.3 µM; with SK-MEL-2 melanoma it was greater than 100 µM; in the test with SR leukemia, greater than 100 µM. The TGI in the test with UO-31 renal is greater than 100 µM.
In the case of `N#CC(C(=O)/C(=N/N)C(C#N)c1ccccc1)c1ccccc1` (stereo not drawn), the TGI in the test with ACHN renal, in the test with KM12 colon, in the test with MALME-3M melanoma, with SF-539 CNS, in the test on SK-MEL-2 melanoma and in the test with UO-31 renal was greater than 100 µM throughout.
Turning to `Oc1cc(O)c2c(-c3c(O)c(-c4ccc(O)c(O)c4)[o+]c4cc(O)cc(O)c34)c(O)c(-c3ccc(O)c(O)c3)[o+]c2c1`, the TGI was 66.6 µM in the test on ACHN renal; greater than 100 µM with KM12 colon; 84.6 µM with MALME-3M melanoma; 50.3 µM in the test with SF-539 CNS; 74.8 µM with SR leukemia; 78.3 µM with UO-31 renal.
As to `CC(=O)[CH-]C(=O)c1ccccc1.CC(=O)[CH-]C(=O)c1ccccc1.[Eu+3].[OH-].[OH3+]`, in the test on ACHN renal, the GI50 was greater than 100 µM and the TGI is greater than 100 µM. Also, in the test with SF-539 CNS, the GI50 is greater than 100 µM and the TGI is greater than 100 µM.
As for `CC(=O)[CH-]C(=O)c1ccccc1.CC(=O)[CH-]C(=O)c1ccccc1.CC(C)CCCC(C)[C@H]1CCC2[C@@H]3CC=C4C[C@@H]([O-])CC[C@]4(C)C3CC[C@@]21C.CC[O-].[Ti+4]` (stereo partly drawn), the GI50 in the test on ACHN renal is 61 µM; with KM12 colon, 39.6 µM; in the test with MALME-3M melanoma, 29.4 µM; in the test on SF-539 CNS, 34.1 µM; with SK-MEL-2 melanoma, 22.4 µM; in the test on UO-31 renal it was 29.4 µM. For the same molecule, the TGI was greater than 100 µM in the test on ACHN renal; greater than 100 µM in the test on KM12 colon; 75.6 µM in the test on MALME-3M melanoma; greater than 100 µM in the test with SF-539 CNS; 80.1 µM in the test with SK-MEL-2 melanoma; greater than 100 µM in the test on UO-31 renal.
Take `CN(C)c1ccc([O][Bi]([Cl])[Cl])cc1`: the GI50 in the test on KM12 colon is greater than 100 µM; in the test on MALME-3M melanoma, greater than 100 µM; in the test on SF-539 CNS, greater than 100 µM; in the test with SK-MEL-2 melanoma it was greater than 100 µM; with SR leukemia, 80.1 µM; in the test with UO-31 renal, greater than 100 µM. The TGI in the test with KM12 colon, in the test on MALME-3M melanoma, in the test with SF-539 CNS, in the test on SK-MEL-2 melanoma, in the test on SR leukemia and in the test with UO-31 renal was greater than 100 µM in each case.
On to `COC(=O)/C([Se]c1c(C)cc(C)cc1C)=C(\[Se]c1c(C)cc(C)cc1C)C(=O)OC`, for which the TGI in the test with ACHN renal, with KM12 colon, in the test with MALME-3M melanoma, in the test with SK-MEL-2 melanoma, in the test on SR leukemia and with UO-31 renal was greater than 100 µM in each case.

These data come from PubChem BioAssay (NCI).
